Test results: patent US9340507B2, “Substituted 4-pyridones and their use as inhibitors of neutrophil elastase activity” (Boehringer Ingelheim International GmbH, priority 2012, dated 2016)
pIC50: −log10 of the molar value.

Each compound was assayed against Human neutrophil elastase (Homo sapiens (Human), UniProt P08246) (assay: Human Neutrophil Elastase Assay). Details: substrate MeOSuc-Ala-Ala-Pro-Val-AMC 250 μM, pH 7.5, fluorescence.
Type: biochemical
Procedure: Human Neutrophil Elastase Assay
All other materials were of the highest grade commercially available.
The following buffers were used: Compound buffer: 100 mM Tris, 500 mM NaCl, adjusted to pH 7.5; Assay buffer: 100 mM Tris, 500 mM NaCl, adjusted to pH 7.5, containing 0.01% BSA.
Assay conditions: Test compounds were prediluted in DMSO and subsequently in compound buffer (5% DMSO final). […] After inactivation of the enzyme, fluorescence intensities were measured at 380 nm excitation and 460 nm emission wavelengths.
Each plate contains wells with a high value control (DMSO+enzyme+substrate) and wells with a low value control (DMSO+inactivated enzyme+substrate). IC50 values were estimated using a sigmoidal concentration response curve with variable slope. Means of low values were taken as 0%, means of high values as 100%. IC50 values of selected compound in the Neutrophil Elastase assay: […]

Human neutrophil elastase, sequence (P08246 30-267): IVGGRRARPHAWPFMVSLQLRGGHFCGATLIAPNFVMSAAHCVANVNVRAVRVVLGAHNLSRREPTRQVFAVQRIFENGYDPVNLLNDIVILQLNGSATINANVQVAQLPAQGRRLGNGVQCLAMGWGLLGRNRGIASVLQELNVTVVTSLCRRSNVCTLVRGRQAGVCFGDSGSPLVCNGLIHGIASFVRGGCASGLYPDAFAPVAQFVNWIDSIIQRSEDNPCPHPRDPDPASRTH

Structure (SMILES)	pIC50
Cc1c(-c2cccc(C(F)F)c2)c(=O)c(C(=O)NCc2ccc(C#N)cc2)cn1C(C)C [Example 4.5]	7.29
Cc1c(-c2cccc(C(F)F)c2)c(=O)c(C(=O)NCc2ccc3c(cnn3C)c2)cn1C(C)C [Example 4.7]	7.35
Cc1c(-c2cccc(C(F)F)c2)c(=O)c(C(=O)NCc2cccc(S(C)(=O)=O)c2)cn1C(C)C [Example 4.9]	7.20
Cc1c(-c2cccc(C(F)F)c2)c(=O)c(C(=O)NCc2ccc(S(N)(=O)=O)cc2)cn1C(C)C [Example 4.10]	7.38
Cc1c(-c2cccc(C(F)F)c2)c(=O)c(C(=O)NCc2ccc(N3CCNC3=O)cc2)cn1C(C)C [Example 4.12]	7.16
Cc1c(-c2ccnc(C(F)(F)F)c2)c(=O)c(C(=O)NCc2ccc(S(C)(=O)=O)cc2)cn1C(C)C [Example 5.1, 1-Isopropyl-2-methyl-4-oxo-2′-trifluoromethyl-1,4-dihydro-[3,4]bipyridinyl-5-carboxylic acid 4-methanesulfonyl-benzylamide]	7.14
Cc1c(-c2cc(Cl)cc(C(F)(F)F)c2)c(=O)c(C(=O)NCc2ccc(S(C)(=O)=O)cc2)cn1C(C)C [Example 5.3]	7.32
Cc1c(-c2ccc(F)c(C(F)F)c2)c(=O)c(C(=O)NCc2ccc(S(C)(=O)=O)cc2)cn1C(C)C [Example 5.4]	7.21
Cc1c(-c2cncc(C(F)(F)F)c2)c(=O)c(C(=O)NCc2ccc(S(C)(=O)=O)cc2)cn1C(C)C [Example 5.5]	7.04
Cc1nnc(CNC(=O)c2cn(C3CCCC3)c(C)c(-c3cccc(C(F)(F)F)c3)c2=O)o1 [Example 8.1, 1-Cyclopentyl-6-methyl-4-oxo-5-(3-trifluoromethyl-phenyl)-1,4-dihydro-pyridine-3-carboxylic acid (5-methyl-[1,3,4]oxadiazol-2-ylmethyl)-amide]	7.37
CC[C@H](C)n1cc(C(=O)NCc2ccc(S(C)(=O)=O)cc2)c(=O)c(-c2ccnc(C(F)(F)F)c2)c1C [Example 12.3, (S)-1-sec-Butyl-2-methyl-4-oxo-2′-trifluoromethyl-1,4-dihydro-[3,4]bipyridinyl-5-carboxylic acid 4-methanesulfonyl-benzylamide]	7.27
COCCn1cc(C(=O)NCc2ccc(S(C)(=O)=O)c[n+]2[O-])c(=O)c(-c2cccc(C(F)(F)F)c2)c1C [Example 16, 1-(2-Methoxy-ethyl)-6-methyl-4-oxo-5-(3-trifluoromethyl-phenyl)-1,4-dihydro-pyridine-3-carboxylic acid (5-methanesulfonyl-1-oxy-pyridin-2-ylmethyl)-amide]	7.20
Cc1c(-c2ccnc(C(F)(F)F)c2)c(=O)c(C(=O)NCc2ccc(S(C)(=O)=O)cn2)cn1C(C)C [Example 17.3, 1-Isopropyl-2-methyl-4-oxo-2′-trifluoromethyl-1,4-dihydro-[3,4]bipyridinyl-5-carboxylic acid (5-methanesulfonyl-pyridin-2-ylmethyl)-amide]	7.11
CC[C@@H](C)n1cc(C(=O)NCc2ccc(S(C)(=O)=O)cn2)c(=O)c(-c2ccnc(C(F)(F)F)c2)c1C [Example 19.3, (R)-1-sec-Butyl-2-methyl-4-oxo-2′-trifluoromethyl-1,4-dihydro-[3,4′]bipyridinyl-5-carboxylic acid (5-methanesulfonyl-pyridin-2-ylmethyl)-amide]	7.40

Stronger by pIC50, values ahead:

pIC50	Structure (SMILES)
7.55	Cc1c(-c2cccc(C(F)F)c2)c(=O)c(C(=O)NCc2cn3ccccc3n2)cn1C(C)C [Example 4.6]
8.00	Cc1c(-c2cccc(C(F)F)c2)c(=O)c(C(=O)NCc2ccc([S+](C)[O-])cc2)cn1C(C)C (centres unmarked) [Example 4.8]
7.74	Cc1c(-c2cccc(C(F)F)c2)c(=O)c(C(=O)NCc2ccc(Cn3ccnc3)cc2)cn1C(C)C [Example 4.11]
7.70	Cc1c(-c2cccc(C(F)F)c2)c(=O)c(C(=O)NCc2ccc(CN3CCCC3=O)cc2)cn1C(C)C [Example 4.13]
7.72	Cc1c(-c2ccc(F)c(C(F)(F)F)c2)c(=O)c(C(=O)NCc2ccc(S(C)(=O)=O)cc2)cn1C(C)C [Example 5.2]
7.52	Cc1c(-c2cccc(C(F)(F)F)c2)c(=O)c(C(=O)NCc2ccc(S(C)(=O)=O)cc2)cn1C1CC1 [Example 6, 1-Cyclopropyl-6-methyl-4-oxo-5-(3-trifluoromethyl-phenyl)-1,4-dihydro-pyridine-3-carboxylic acid 4-methanesulfonyl-benzylamide]
7.57	Cc1c(-c2cccc(C(F)(F)F)c2)c(=O)c(C(=O)NCc2ccc(S(C)(=O)=O)cc2)cn1C1CCC1 [Example 7, 1-Cyclobutyl-6-methyl-4-oxo-5-(3-trifluoromethyl-phenyl)-1,4-dihydro-pyridine-3-carboxylic acid 4-methanesulfonyl-benzylamide]
7.55	Cc1nnc(CNC(=O)c2cn(C3CCCC3)c(C)c(-c3cccc(C(F)F)c3)c2=O)o1 [Example 9.1, 1-Cyclopentyl-5-(3-difluoromethyl-phenyl)-6-methyl-4-oxo-1,4-dihydro-pyridine-3-carboxylic acid (5-methyl-[1,3,4]oxadiazol-2-ylmethyl)-amide]
7.74	Cc1c(-c2cccc(C(F)F)c2)c(=O)c(C(=O)NCc2ccc(S(C)(=O)=O)cc2)cn1C1CCCC1 [Example 9.2, 1-Cyclopentyl-5-(3-difluoromethyl-phenyl)-6-methyl-4-oxo-1,4-dihydro-pyridine-3-carboxylic acid 4-methanesulfonyl-benzylamide]
7.54	CCn1cc(C(=O)NCc2ccc(S(C)(=O)=O)cc2)c(=O)c(-c2cccc(C(F)F)c2)c1C [Example 10, 5-(3-Difluoromethyl-phenyl)-1-ethyl-6-methyl-4-oxo-1,4-dihydro-pyridine-3-carboxylic acid 4-methanesulfonyl-benzylamide]
8.10	CC[C@@H](C)n1cc(C(=O)NCc2ccc(S(C)(=O)=O)cc2)c(=O)c(-c2cccc(C(F)F)c2)c1C [Example 11.1, (R)-1-sec-Butyl-5-(3-difluoromethyl-phenyl)-6-methyl-4-oxo-1,4-dihydro-pyridine-3-carboxylic acid 4-methanesulfonyl-benzylamide]
7.46	CC[C@@H](C)n1cc(C(=O)NCc2ccc(S(C)(=O)=O)cc2)c(=O)c(-c2ccnc(C(F)(F)F)c2)c1C [Example 11.2, (R)-1-sec-Butyl-2-methyl-4-oxo-2′-trifluoromethyl-1,4-dihydro-[3,4]bipyridinyl-5-carboxylic acid 4-methanesulfonyl-benzylamide]
8.05	CC[C@H](C)n1cc(C(=O)NCc2ccc(S(C)(=O)=O)cc2)c(=O)c(-c2cccc(C(F)(F)F)c2)c1C [Example 12.1, (S)-1-sec-Butyl-6-methyl-4-oxo-5-(3-trifluoromethyl-phenyl)-1,4-dihydro-pyridine-3-carboxylic acid 4-methanesulfonyl-benzylamide]
7.92	CC[C@H](C)n1cc(C(=O)NCc2ccc(S(C)(=O)=O)cc2)c(=O)c(-c2cccc(C(F)F)c2)c1C [Example 12.2, (S)-1-sec-Butyl-5-(3-difluoromethyl-phenyl)-6-methyl-4-oxo-1,4-dihydro-pyridine-3-carboxylic acid 4-methanesulfonyl-benzylamide]
8.10	CCC(CC)n1cc(C(=O)NCc2ccc(S(C)(=O)=O)cc2)c(=O)c(-c2cccc(C(F)F)c2)c1C [Example 15.2, 5-(3-Difluoromethyl-phenyl)-1-(1-ethyl-propyl)-6-methyl-4-oxo-1,4-dihydro-pyridine-3-carboxylic acid 4-methanesulfonyl-benzylamide]
7.62	CCC(CC)n1cc(C(=O)NCc2ccc(S(C)(=O)=O)cc2)c(=O)c(-c2ccnc(C(F)(F)F)c2)c1C [Example 15.3, 1-(1-Ethyl-propyl)-2-methyl-4-oxo-2′-trifluoromethyl-1,4-dihydro-[3,4]bipyridinyl-5-carboxylic acid 4-methanesulfonyl-benzylamide]
7.82	Cc1c(-c2cccc(C(F)F)c2)c(=O)c(C(=O)NCc2ccc(S(C)(=O)=O)cn2)cn1C(C)C [Example 17.2, 5-(3-Difluoromethyl-phenyl)-1-isopropyl-6-methyl-4-oxo-1,4-dihydro-pyridine-3-carboxylic acid (5-methanesulfonyl-pyridin-2-ylmethyl)-amide]
7.49	Cc1c(-c2cccc(C(F)(F)F)c2)c(=O)c(C(=O)NCc2ccc(S(C)(=O)=O)cn2)cn1C1CCC1 [Example 18.1, 1-Cyclobutyl-6-methyl-4-oxo-5-(3-trifluoromethyl-phenyl)-1,4-dihydro-pyridine-3-carboxylic acid (5-methanesulfonyl-pyridin-2-ylmethyl)-amide]
7.46	Cc1c(-c2cccc(C(F)F)c2)c(=O)c(C(=O)NCc2ccc(S(C)(=O)=O)cn2)cn1C1CCC1 [Example 18.2, 1-Cyclobutyl-5-(3-difluoromethyl-phenyl)-6-methyl-4-oxo-1,4-dihydro-pyridine-3-carboxylic acid (5-methanesulfonyl-pyridin-2-ylmethyl)-amide]
8.00	CC[C@@H](C)n1cc(C(=O)NCc2ccc(S(C)(=O)=O)cn2)c(=O)c(-c2cccc(C(F)F)c2)c1C [Example 19.2, (R)-1-sec-Butyl-5-(3-difluoromethyl-phenyl)-6-methyl-4-oxo-1,4-dihydro-pyridine-3-carboxylic acid (5-methanesulfonyl-pyridin-2-ylmethyl)-amide]
7.96	CC[C@H](C)n1cc(C(=O)NCc2ccc(S(C)(=O)=O)cn2)c(=O)c(-c2cccc(C(F)F)c2)c1C [Example 20.2, (S)-1-sec-Butyl-5-(3-difluoromethyl-phenyl)-6-methyl-4-oxo-1,4-dihydro-pyridine-3-carboxylic acid (5-methanesulfonyl-pyridin-2-ylmethyl)-amide]
